{"source": "patent US10881642B2", "about": "“Autophagy enhancer and use thereof” (Industry-Academic Cooperation Foundation, Yonsei University, priority 2016, dated 2021)", "test_system": "HFD-fed hIAPP+ mice", "assay": "Metabolic profile and islet amyloid of HFD-fed hIAPP+ mice", "format": "in vivo", "description": "(FIG. 13A) INS-1 cells transfected with non-amyloidogenic prepro-mIAPP-HA or amyloidogenic prepro-hIAPP-HA construct were treated with MSL or MSL-7 followed by western blot analysis using anti-HA antibody. (FIG. 13B) the transfected cells of (FIG. 13A) were treated with MSL-7 in the presence or absence of bafilomycin followed by western blot analysis using anti-HA antibody. (FIG. 13C) The transfected cells were treated with MSL-7 in the presence or absence of 3-MA, after which the amount of […] contained in the cell lysates were measured. (FIG. 13D) HFD-fed hIAPP+ mice were administered with MSL-7, and non-fasting glucose level was monitored. (FIG. 13E) IPGTT. (FIG. 13F) HFD-fed hIAPP+ mice were administered with MSL-7 for 8 weeks and the insulinogenic index was measured. (FIG. 13G) HFD-fed hIAPP+ mice were administered with MSL-7 for 8 weeks and the pancreatic section was obtained. All antibody was used for immunohistochemistry (left). The percentage of A11-[…] cells among DAPI+ cells (right). (FIG. 13H) FSB stained pancreatic section of HFD-fed hIAPP+ mice administered with MSL-7 for 8 weeks (left). Average fluorescence intensity/area (right).\nScreening of autophagy enhancer. […] Luciferase assay. Firefly and Renilla luciferase assays were conducted using the Dual-Luciferase Reporter Assay System (Promega) according to the manufacturer's recommendation. In brief, cells were lysed in 1× lysis buffer and subjected to a single round of freezing/thawing. Firefly luciferase was determined after mixing 5 μl of lysate with 25 μl of Luciferase Assay Reagent II. Renilla luciferase was then determined after further addition of 20 ul of Stop&Glo Reagent. Cell culture and media and drugs treatment. HeLa, TFEB-GFP-HeLa, SK-HEP1 (hepatoma cell line) and Hepa1c1c7 (hepatoma cell line) cells were cultured in the following media: (normal) Dulbecco's modified Eagle's medium (DMEM, Sigma-Aldrich) supplemented with 10% FBS and 1% penicillin/streptomycin; (starvation) HBSS media with Ca and Mg supplemented with 10 mM HEPES; Drugs treatment: MSL compound (50-100 μM); Rapamycin ([…]); Torin-1 (1 μM); Bafilomycin (100 nM); Cyclosporin A (10 μM); and FK506 (5 μM). Cells were treated with oleic acid (400 μM) and palmitic acid (400 μM) for 24 h. Where indicated, cells were washed off with HBSS and replaced by DMEM with or without MSL for 16 h. INS-1 cells, a insulinoma cell line of […] were cultured as described previously (Kim et al., 2014 ibid) in the presence or absence of bafilomycin and treated with MSL-7. Lactate dehydrogenase (LDH) assay. Cytotoxicity was determined by the measurement of LDH release in cell culture media using the LDH kit (Roche), according to the protocol from the manufacturer. Transfection and plasmids. Cells were transiently transfected with DNA plasmids 3×FLAG-hTFEB (A Ballabio), FYVE-dsRed (Cantley LC), RFP-LC3 or mRFP-GFP-LC3 using lipofectamine 2000 (Invitrogen) according to the protocol from the manufacturer. […] Imaging and image quantification. […] Formation of acidic vesicular organelles was quantitated by staining the cells with acridine orange (Invitrogen, 5 ug/ml, 10 min). […] Cells or tissues were solubilized in lysis buffer supplemented with protease and phosphatase inhibitors and protein concentration was measured by the Bradford method. Ten to 30 micrograms were loaded on 4-12% Bis-Tris gel (NUPAGE, Invitrogen) or 8-15% SDS-PAGE, transferred to PVDF membranes and analyzed by western blot using the ECL method (Pierce). […]", "data": [{"smiles": "COc1oc(-c2ccccc2Cl)nc1S(=O)(=O)c1ccccc1", "note": "[MSL-7, 2-(2-chlorophenyl)-5-methoxy-4-(phenylsulfonyl) oxazole]", "values": [{"measurement": "non-fasting glucose level", "value": "significantly reduced"}, {"measurement": "FSB-stained pancreatic islet amyloid", "setting": "8-week administration", "value": "similarly reduced"}, {"measurement": "accumulation of hIAPP oligomer (A11 antibody)", "setting": "8-week administration", "value": "significantly reduced"}, {"measurement": "Glucose intolerance (IPGTT)", "setting": "8 week treatment", "value": "significantly improved"}, {"measurement": "insulinogenic index", "setting": "8 week treatment", "value": "significantly improved"}]}]}
